# In ChEMBL document CHEMBL1152256, “Synthesis of Arabino glycosyl triazoles as potential inhibitors of mycobacterial cell wall biosynthesis” (2008):
# Calls of active or inactive are those of the source. The calls are words filed in the database; no cut-off is given here.
# Tested on: Escherichia coli
# Experiment: Antibacterial activity against Escherichia coli JM109 at 1 mg/mL
# Type: functional, organism-based
row,SMILES,Activity
1,CC(C)=CCC/C(C)=C/CC/C(C)=C/COCc1cn([C@@H]2O[C@H](CO)[C@@H](O)[C@@H]2O)nn1,inactive
2,CCCCCCCCCCCCCCOCc1cn([C@@H]2O[C@H](CO)[C@@H](O)[C@@H]2O)nn1,inactive
3,CCCCCCCCCCc1cn([C@@H]2O[C@H](CO)[C@@H](O)[C@@H]2O)nn1,inactive
4,OC[C@H]1O[C@@H](n2cc(-c3ccccc3)nn2)[C@@H](O)[C@@H]1O,inactive
5,CCCCCCc1cn([C@@H]2O[C@H](CO)[C@@H](O)[C@@H]2O)nn1,inactive
6,CCCCCCCCc1cn([C@@H]2O[C@H](CO)[C@@H](O)[C@@H]2O)nn1,inactive
